Measurements published in patent US20240336568A1, “SELECTIVE PHD1 INHIBITOR COMPOUNDS, COMPOSITIONS, AND METHODS OF USE” (Akebia Therapeutics, Inc., priority 2021, published 2024).

What follows are compounds tested on full-length human prolyl-4-hydroxylase domain (PHD) enzymes, PHD1 and PHD2 (assay: TR-FRET assay, selectivity of compounds for PHD1 over PHD2 (ratio of Kis calculated from IC50s)). Settings: ratio of Kis (PHD2 Ki/PHD1 Ki), Kis calculated from TR-FRET IC50s by Cheng Prussoff equation; 1 uM 2-OG.
Assay type: biochemical
Description: Time-resolved fluorescence resonance energy transfer (TR-FRET) assay was utilized to determine the enzymatic half maximal inhibitory concentration (IC50) value of PHD inhibitors against the full-length human prolyl-4-hydroxylase domain (PHD) enzymes, PHD1 and PHD2. The TR-FRET assay was developed based on the specific binding of hydroxylated HIF-la peptide with the complex formed by VHL, EloB and EloC (VBC), to generate a fluorescent signal. Terbium (Tb)-Donor (monoclonal antibody anti-6His-Tb-cryptate Gold) and D2-acceptor (streptavidin [SA]-D2) of TR-FRET are linked to the VBC complex and to HIF-1α peptide, respectively. The VBC complex binds specifically to the HIF-1α peptide when it is hydroxylated, allowing energy transfer from TR-FRET donor to acceptor (FIG. 1).
TR-FRET Reagents. Monoclonal antibody anti-6His-Tb-cryptate Gold (catalog #61HI2TLA) and streptavidin (SA)-D2 (catalog #610SADLA) were purchased from CisBio International (Bedford, MA, USA).
N-terminus biotinylated HIF-1α C35 synthetic peptide representing amino acids 547 to 581 and including the proline 564 PHD2 hydroxylation site was purchased from California Peptide Research (Salt Lake City, UT, USA).
VBC Complex. His-tagged recombinant VHL protein, EloB, EloC complex (His-VBC) was supplied by Axxam (Milan, Italy). Recombinant human VHL (National Center for Biotechnology Information [NCBI] accession number NP_00542.1) contained a His tag at the C-terminus of amino acids 55 to 213 and is referred to as VHL-His. VHL-His was co-expressed in E. coli with full-length human EloB (NCBI accession number Q15370.1) and full-length human EloC (NCBI accession number Q15369.1) and purified by affinity chromatography on a nickel-nitrilotriacetic acid (Ni-NTA) column as the His-VBC complex. Purity (˜80%) was assessed by sodium dodecyl sulfate polyacrylamide gel electrophoresis (SDS-PAGE).
PHD1. Recombinant human PHD1 protein (catalog #81064, Lot #24717001) was purchased from Active Motif (Carlsbad, CA, USA). PHD1 was expressed in a baculovirus expression system as the full-length protein (NCBI accession number NP_542770.2) with an N-terminal FLAG tag (molecular weight 44.9 kDa). Purity (>90%) was assessed by SDS-PAGE.
PHD2. The full-length human PHD2 enzyme was produced with a baculovirus infected insect cell (BIIC) expression system by Beryllium (Bedford, MA, USA). The PHD2 construct contained amino acids 1 to 426 of PHD2 (UniProt Knowledgebase[UniProtKB]/Swiss-Prot accession number Q9GZT9.1), and a His tag and a Tobacco Etch Virus (TEV) protease cleavage site at the N-terminus. The construct was expressed in Sf9 insect cells, purified by Ni-NTA column and digested with TEV protease to remove the His tag.
Compounds were preincubated with PHD enzyme in a 10 μL reaction volume in white 384-well Optiplate microplates (catalog #6007290, Perkin Elmer, Waltham, MA, USA). For this, 5 μL compound was serially diluted with dilution buffer (50 mM HEPES [4-(2-hydroxyethyl)-1-piperazineethanesulfonic acid] pH 7.5, 50 mM sodium chloride [NaCl], 0.01% Tween-20, 0.01% purified bovine serum albumin [BSA]) and mixed with 5 μL PHD enzyme mix prepared as a 4× concentrate in the dilution buffer containing PHD enzyme (60 nM PHD1, 20 nM PHD2, 140 nM PHD3), 40 μM ferrous ammonium sulfate (FAS), 4 mM sodium (Na) ascorbate. The plates were incubated for 30 minutes at room temperature without rotation.
Five microliters of the VBC/anti-6His-Tb-cryptate Gold mix prepared as a 4× concentrate in dilution buffer containing 20 nM His-VBC, 1.32 nM monoclonal antibody anti-6His-Tb-cryptate Gold was then added. This step was followed immediately by the addition of 5 μL of the HIF-1α C35 substrate mix prepared as a 4× concentrate in the dilution buffer containing 120 nM biotin-labeled HIF-1α C35, 132 nM SA-D2, 4 μM 2-oxoglutarate (2-OG) to reach a final reaction volume of 20 μL. […]

Compound | Selectivity of PHD1 over PHD2
CC(C)(CC(=O)O)NC(=O)c1ncc(-c2cccc(Cl)c2)cc1O [compound 1, 3-(5-(3-chlorophenyl)-3-hydroxypicolinamido)-3-methylbutanoic acid] | ~14 fold
C[C@@H](CC(=O)O)NC(=O)c1ncc(-c2cccc(Cl)c2)cc1O [compound 2, (S)-3-(5-(3-chlorophenyl)-3-hydroxypicolinamido)butanoic acid] | ~16 fold
C[C@H](CC(=O)O)NC(=O)c1ncc(-c2cccc(Cl)c2)cc1O [compound 3, (R)-3-(5-(3-chlorophenyl)-3-hydroxypicolinamido)butanoic acid] | ~17 fold
CC(C)(CNC(=O)c1ncc(-c2cccc(Cl)c2)cc1O)C(=O)O [compound 4, 3-(5-(3-chlorophenyl)-3-hydroxypicolinamido)-2,2-dimethylpropanoic acid] | ~1187 fold
O=C(O)CCNC(=O)c1ncc(-c2cccc(Cl)c2)cc1O [compound 5, 3-(5-(3-chlorophenyl)-3-hydroxypicolinamido)propanoic acid] | ~12 fold
CC(C)(CNC(=O)c1ncc(-c2cnn(-c3ccccc3)c2)cc1O)C(=O)O [compound 6, 3-(3-Hydroxy-5-(1-phenyl-1H-pyrazol-4-yl)picolinamido)-2,2-dimethylpropanoic acid] | ~249 fold
CCCn1cc(-c2cnc(C(=O)NCC(C)(C)C(=O)O)c(O)c2)cn1 [compound 7, 3-(3-hydroxy-5-(1-propyl-1H-pyrazol-4-yl)picolinamido)-2,2-dimethylpropanoic acid] | ~503 fold
CC(C)(CNC(=O)c1ncc(-c2cccc(Oc3ccccc3)c2)cc1O)C(=O)O [compound 8, 3-(3-hydroxy-5-(3-phenoxyphenyl)picolinamido)-2,2-dimethylpropanoic acid] | ~219 fold
CC(C)(CNC(=O)c1ncc(-c2cccc(-c3ccccc3)c2)cc1O)C(=O)O [compound 9, 3-(5-([1,1′-biphenyl]-3-yl)-3-hydroxypicolinamido)-2,2-dimethylpropanoic acid] | ~189 fold
CC(C)(CNC(=O)c1ncc(-c2cccc(CN3CCCC3)c2)cc1O)C(=O)O [compound 10, 3-(3-hydroxy-5-(3-(pyrrolidin-1-ylmethyl)phenyl)picolinamido)-2,2-dimethylpropanoic acid] | ~95 fold
CC(C)(CNC(=O)c1ncc(-c2cccc(COc3cccc(Cl)c3)c2)cc1O)C(=O)O [compound 11, 3-(5-(3-((3-chlorophenoxy)methyl)phenyl)-3-hydroxypicolinamido)-2,2-dimethylpropanoic acid] | ~50 fold
CC(C)(CNC(=O)c1ncc(-c2cccc(OCC3CC3)c2)cc1O)C(=O)O [compound 12, 3-(5-(3-(cyclopropylmethoxy)phenyl)-3-hydroxypicolinamido)-2,2-dimethylpropanoic acid] | ~1984 fold
COCCc1ccc(OCc2cccc(-c3cnc(C(=O)NCC(C)(C)C(=O)O)c(O)c3)c2)cc1 [compound 13, 3-(3-hydroxy-5-(3-((4-(2-methoxyethyl)phenoxy)methyl)phenyl)picolinamido)-2,2-dimethylpropanoic acid] | ~6 fold
Cc1ncc(-c2cnc(C(=O)NCC(C)(C)C(=O)O)c(O)c2)s1 [compound 14, 3-(3-hydroxy-5-(2-methylthiazol-5-yl)picolinamido)-2,2-dimethylpropanoic acid] | ~15 fold
CC(C)(CNC(=O)c1ncc(-c2cccc(-c3cccnc3)c2)cc1O)C(=O)O [compound 15, 3-(3-hydroxy-5-(3-(pyridin-3-yl)phenyl)picolinamido)-2,2-dimethylpropanoic acid] | ~125 fold
CC(C)(CNC(=O)c1ncc(-c2cccc(COc3ccc(OC(F)(F)F)cc3)c2)cc1O)C(=O)O [compound 16, 3-(3-hydroxy-5-(3-((4-(trifluoromethoxy)phenoxy)methyl)phenyl)picolinamido)-2,2-dimethylpropanoic acid] | ~53 fold
CC(C)(CNC(=O)c1ncc(-c2ccc3ccccc3c2)cc1O)C(=O)O [compound 17, 3-(3-hydroxy-5-(naphthalen-2-yl)picolinamido)-2,2-dimethylpropanoic acid] | ~1031 fold
CC(C)(CNC(=O)c1ncc(-c2cccc(COc3cccc4ccccc34)c2)cc1O)C(=O)O [compound 18, 3-(3-hydroxy-5-(3-((naphthalen-1-yloxy)methyl)phenyl)picolinamido)-2,2-dimethylpropanoic acid] | ~885 fold
CC(C)(CNC(=O)c1ncc(-c2cnn(CCN3CCOCC3)c2)cc1O)C(=O)O [compound 19, 3-(3-hydroxy-5-(1-(2-morpholinoethyl)-1H-pyrazol-4-yl)picolinamido)-2,2-dimethylpropanoic acid] | ~495 fold
CC(C)(CNC(=O)c1ncc(-c2cccc3ccccc23)cc1O)C(=O)O [compound 20, 3-(3-hydroxy-5-(naphthalen-1-yl)picolinamido)-2,2-dimethylpropanoic acid] | ~159 fold
CC(C)(CNC(=O)c1ncc(-c2cccc(O)c2)cc1O)C(=O)O [compound 21, 3-(3-hydroxy-5-(3-hydroxyphenyl)picolinamido)-2,2-dimethylpropanoic acid] | ~1494 fold
CC(C)(CNC(=O)c1ncc(-c2cccc(OCc3ccc(Cl)cc3)c2)cc1O)C(=O)O [compound 22, 3-(5-(3-((4-chlorobenzyl)oxy)phenyl)-3-hydroxypicolinamido)-2,2-dimethylpropanoic acid] | ~261 fold
CC(C)(CNC(=O)c1ncc(-c2ccc3cc(O)ccc3c2)cc1O)C(=O)O [compound 23, 3-(3-hydroxy-5-(6-hydroxynaphthalen-2-yl)picolinamido)-2,2-dimethylpropanoic acid] | ~113 fold
CC(C)(CNC(=O)c1ncc(-c2cccc(Oc3ccc(Cl)cc3)c2)cc1O)C(=O)O [compound 24, 3-(5-(3-(4-chlorophenoxy)phenyl)-3-hydroxypicolinamido)-2,2-dimethylpropanoic acid] | ~181 fold
CC(C)(CNC(=O)c1ncc(-c2cccc(Nc3ccc(Cl)cc3)c2)cc1O)C(=O)O [compound 25, 3-(5-(3-((4-chlorophenyl)amino)phenyl)-3-hydroxypicolinamido)-2,2-dimethylpropanoic acid] | ~213 fold
CC(C)(CNC(=O)c1ncc(-c2ccc3cc(Oc4ccc(Cl)cc4)ccc3c2)cc1O)C(=O)O [compound 26, 3-(5-(6-(4-chlorophenoxy)naphthalen-2-yl)-3-hydroxypicolinamido)-2,2-dimethylpropanoic acid] | ~31 fold
CC(C)(CNC(=O)c1ncc(-c2ccc3cc(OCc4ccc(Cl)cc4)ccc3c2)cc1O)C(=O)O [compound 27, 3-(5-(6-((4-chlorobenzyl)oxy)naphthalen-2-yl)-3-hydroxypicolinamido)-2,2-dimethylpropanoic acid] | ~24 fold
